≈ marks a conversion by molar mass, not a printed value. Calls of active or inactive are those of the source. The rule behind the calls is not given here.
Assays:
Staphylococcus aureus [1] = experiment: Antibacterial activity against methicillin-resistant Staphylococcus aureus USA300 incubated for 18 to 20 hrs by broth microdilution method; type: functional; conditions: time 18-20 hrs
Staphylococcus aureus [2] = experiment: Induction of drug resistance in methicillin-resistant Staphylococcus aureus USA400 NRS 123 assessed as fold increase in MIC measured after 15 passages by broth microdilution assay; type: functional
Staphylococcus aureus [3] = experiment: Induction of drug resistance in methicillin-resistant Staphylococcus aureus USA400 NRS 123 assessed as fold increase in MIC measured after 7 passages by broth microdilution assay; type: functional
Staphylococcus aureus [4] = experiment: Antibacterial activity against methicillin-sensitive Staphylococcus aureus ATCC 6538 incubated for 18 to 20 hrs by broth microdilution method; type: functional; conditions: time 18-20 hrs
Staphylococcus aureus [5] = experiment: Antibacterial activity against methicillin-resistant Staphylococcus aureus NRS 384 (USA300) incubated for 18 to 20 hrs by broth microdilution method; type: functional; conditions: time 18-20 hrs
Staphylococcus aureus [6] = experiment: Antibacterial activity against Vancomycin-resistant Staphylococcus aureus 9 incubated for 18 to 20 hrs by broth microdilution method; type: functional; conditions: time 18-20 hrs
Staphylococcus aureus [7] = experiment: Antibacterial activity against Vancomycin-resistant Staphylococcus aureus 10 incubated for 18 to 20 hrs by broth microdilution method; type: functional; conditions: time 18-20 hrs
Staphylococcus aureus [8] = experiment: Antibacterial activity against methicillin-resistant Staphylococcus aureus NRS 123 (USA400) incubated for 18 to 20 hrs by broth microdilution method; type: functional; conditions: time 18-20 hrs
Staphylococcus aureus [9] = experiment: Antibacterial activity against methicillin-resistant Staphylococcus aureus NRS 119 incubated for 18 to 20 hrs by broth microdilution method; type: functional; conditions: time 18-20 hrs
Staphylococcus aureus [10] = experiment: Antibacterial activity against methicillin-sensitive Staphylococcus aureus NRS 107 incubated for 18 to 20 hrs by broth microdilution method; type: functional; conditions: time 18-20 hrs
[11] = system: Staphylococcus epidermidis; experiment: Antibacterial activity against Staphylococcus epidermidis NRS 101 incubated for 18 to 20 hrs by broth microdilution method; type: functional; conditions: time 18-20 hrs
Staphylococcus aureus [12] = experiment: Antibacterial activity against methicillin-resistant Staphylococcus aureus USA300 infected in BALB/c mouse assessed as recovery of body weight loss administered 72 hrs post infection topically twice daily for 4 days; type: functional, organism-based; conditions: time 4.0 day
Staphylococcus aureus [13] = experiment: Antibacterial activity against methicillin-resistant Staphylococcus aureus USA300 infected in BALB/c mouse assessed as reduction in bacterial count in spleen administered 72 hrs post infection topically twice daily for 4 days; type: functional, organism-based; conditions: time 4.0 day
Staphylococcus aureus [14] = experiment: Antibacterial activity against methicillin-resistant Staphylococcus aureus USA300 infected in BALB/c mouse assessed as reduction in bacterial count administered 72 hrs post infection topically twice daily for 4 days; type: functional, organism-based; conditions: time 4.0 day
[15] = Cytotoxicity against human HaCaT cells assessed as cell viability at 64 ug/ml incubated for 24 hrs by MTS assay relative to control; type: toxicity, cell-based; conditions: at 64 µg/mL, read-out: Activity
[16] = Cytotoxicity against human Caco-2 cells assessed as cell viability at upto 128 ug/ml incubated for 24 hrs by MTS assay relative to control; type: toxicity, cell-based; conditions: up to 128 µg/mL, read-out: Activity
Staphylococcus aureus [17] = experiment: Antibacterial activity against methicillin-resistant Staphylococcus aureus NRS 386 (USA700) incubated for 18 to 20 hrs by broth microdilution method; type: functional; conditions: time 18-20 hrs
Staphylococcus aureus [18] = experiment: Antibacterial activity against methicillin-resistant Staphylococcus aureus NRS 385 (USA500) incubated for 18 to 20 hrs by broth microdilution method; type: functional; conditions: time 18-20 hrs
Staphylococcus aureus [19] = experiment: Antibacterial activity against methicillin-resistant Staphylococcus aureus USA400 NRS 123 assessed as time of post-antibiotic effect at 5 times MIC incubated for 2 hrs followed by compound washout and measured every single 1 hr; type: functional
Staphylococcus aureus [20] = experiment: Antibacterial activity against Vancomycin-resistant Staphylococcus aureus 12 incubated for 18 to 20 hrs by broth microdilution method; type: functional; conditions: time 18-20 hrs
Caco-2 [21] = experiment: Cytotoxicity against human Caco-2 cells assessed as reduction in cell viability at 64 ug/ml incubated for 24 hrs by MTS assay; type: toxicity, cell-based; conditions: caco-2, 24 h, dose 64 µg/ml
Staphylococcus aureus [22] = experiment: Potentiation of vancomycin-induced antibacterial activity against vancomycin-resistant Staphylococcus aureus 9 assessed as vancomycin MIC at 0.5 times MIC incubated for 18 to 20 hrs by broth microdilution method; type: functional; conditions: time 18-20 hrs
[23] = Hemolytic activity in rabbit erythrocytes at 64 ug/ml incubated for 30 min by absorbance based analysis relative to control; type: toxicity, cell-based, Oryctolagus cuniculus, Erythrocyte; conditions: at 64 µg/mL, read-out: Activity
Staphylococcus aureus [24] = experiment: Potentiation of vancomycin-induced antibacterial activity against vancomycin-resistant Staphylococcus aureus 2 assessed as vancomycin MIC at 0.5 times MIC incubated for 18 to 20 hrs by broth microdilution method; type: functional; conditions: time 18-20 hrs
Erythrocyte = experiment: Hemolytic activity in rabbit erythrocytes at 128 ug/ml incubated for 30 min by absorbance based analysis; type: toxicity, cell-based, Oryctolagus cuniculus; conditions: 0.5 h, dose 128 µg/ml
Staphylococcus aureus [25] = experiment: Potentiation of vancomycin-induced antibacterial activity against vancomycin-resistant Staphylococcus aureus 1 assessed as vancomycin MIC at 0.5 times MIC incubated for 18 to 20 hrs by broth microdilution method; type: functional; conditions: time 18-20 hrs
Staphylococcus aureus [26] = experiment: Potentiation of vancomycin-induced antibacterial activity against vancomycin-resistant Staphylococcus aureus 13 assessed as vancomycin MIC at 0.5 times MIC incubated for 18 to 20 hrs by broth microdilution method; type: functional; conditions: time 18-20 hrs
[27] = Hemolytic activity in rabbit erythrocytes at 32 ug/ml incubated for 30 min by absorbance based analysis relative to control; type: toxicity, cell-based, Oryctolagus cuniculus, Erythrocyte; conditions: at 32 µg/mL, read-out: Activity
Staphylococcus aureus [28] = experiment: Potentiation of vancomycin-induced antibacterial activity against vancomycin-resistant Staphylococcus aureus 10 assessed as vancomycin MIC at 0.5 times MIC incubated for 18 to 20 hrs by broth microdilution method; type: functional; conditions: time 18-20 hrs
Caco-2 [29] = experiment: Cytotoxicity against human Caco-2 cells at 128 ug/ml incubated for 24 hrs by MTS assay; type: toxicity, cell-based; conditions: caco-2, 24 h, dose 128 µg/ml
Staphylococcus aureus [30] = experiment: Potentiation of vancomycin-induced antibacterial activity against vancomycin-resistant Staphylococcus aureus 12 assessed as vancomycin MIC at 0.5 times MIC incubated for 18 to 20 hrs by broth microdilution method; type: functional; conditions: time 18-20 hrs
Staphylococcus aureus [31] = experiment: Potentiation of vancomycin-induced antibacterial activity against vancomycin-resistant Staphylococcus aureus 3b assessed as vancomycin MIC at 0.5 times MIC incubated for 18 to 20 hrs by broth microdilution method; type: functional; conditions: time 18-20 hrs
Staphylococcus aureus [32] = experiment: Potentiation of vancomycin-induced antibacterial activity against vancomycin-resistant Staphylococcus aureus 3 assessed as vancomycin MIC at 0.5 times MIC incubated for 18 to 20 hrs by broth microdilution method; type: functional; conditions: time 18-20 hrs
Staphylococcus aureus [33] = experiment: microbe, parasite or virus in culture; conditions: 3b
Staphylococcus aureus [34] = experiment: microbe, parasite or virus in culture; conditions: 1
Staphylococcus aureus [35] = experiment: microbe, parasite or virus in culture; conditions: 13
Staphylococcus aureus [36] = experiment: microbe, parasite or virus in culture; conditions: 3a
Staphylococcus aureus [37] = experiment: microbe, parasite or virus in culture; conditions: 2

SMILES	MIC (Staphylococcus aureus [1]) [µg/mL]	MIC (Staphylococcus aureus [4]) [µg/mL]	MIC (Staphylococcus aureus [5]) [µg/mL]	MIC (Staphylococcus aureus [6]) [µg/mL]	MIC (Staphylococcus aureus [7]) [µg/mL]	MIC (Staphylococcus aureus [8]) [µg/mL]	MIC (Staphylococcus aureus [9]) [µg/mL]	MIC (Staphylococcus aureus [10]) [µg/mL]	MIC [11] [µg/mL]	Time (Staphylococcus aureus [19]) [h]	MIC (Staphylococcus aureus [20]) [µg/mL]	also measured
C/C(=N\NC(=N)N)c1ccc(NC(=O)Nc2ccc(-c3cccc(C)c3)cc2)cc1	4 (≈ 9.99 µM)											
CO[C@H]1/C=C/O[C@@]2(C)Oc3c(C)c(O)c4c(O)c(c(/C=N/N5CCN(C)CC5)c(O)c4c3C2=O)NC(=O)/C(C)=C\C=C\[C@H](C)[C@H](O)[C@@H](C)[C@@H](O)[C@@H](C)[C@H](OC(C)=O)[C@@H]1C												fold change (FC) (Staphylococcus aureus [2]): > 500000; fold change (FC) (Staphylococcus aureus [3]): 8
C/C(=N\NC(=N)N)c1ccc(NC(=O)Nc2ccc(C3CC3)cc2)cc1	≥ 64											
CC(=O)NC[C@H]1CN(c2ccc(N3CCOCC3)c(F)c2)C(=O)O1 [LINEZOLID]		1 (≈ 2.96 µM)	1 (≈ 2.96 µM)	1 (≈ 2.96 µM)	1 (≈ 2.96 µM)	1 (≈ 2.96 µM)	32 (≈ 94.9 µM)	1 (≈ 2.96 µM)	1 (≈ 2.96 µM)			
C/C(=N\NC(=N)N)c1ccc(NC(=O)Nc2ccc(C3CCC3)cc2)cc1	≥ 64											
CC(=O)O[C@H]1C[C@@]2(C)[C@@H](C[C@@H](O)[C@H]3[C@@]4(C)CC[C@@H](O)[C@@H](C)[C@@H]4CC[C@@]32C)/C1=C(\CCC=C(C)C)C(=O)O												Activity (Staphylococcus aureus [12]): Active; Activity (Staphylococcus aureus [13]): Active; Activity (Staphylococcus aureus [14]): Active
C/C(=N\NC(=N)N)c1ccc(NC(=O)Nc2ccc(/C=C/C3CCCCC3)cc2)cc1		4 (≈ 9.56 µM)	2 (≈ 4.78 µM)	8 (≈ 19.1 µM)	8 (≈ 19.1 µM)	4 (≈ 9.56 µM)	4 (≈ 9.56 µM)	4 (≈ 9.56 µM)	8 (≈ 19.1 µM)	6	8 (≈ 19.1 µM)	viability at 24 h, 64 ug/ml [15]: 100%; viability at 24 h [16]: 100%; MIC (Staphylococcus aureus [17]): 8 µg/mL (≈ 19.1 µM); MIC (Staphylococcus aureus [18]): 8 µg/mL (≈ 19.1 µM)
C/C(=N\NC(=N)N)c1ccc(NC(=O)Nc2ccc(/C=C/CC(C)C)cc2)cc1		4 (≈ 10.2 µM)	2 (≈ 5.1 µM)	4 (≈ 10.2 µM)	8 (≈ 20.4 µM)	4 (≈ 10.2 µM)	4 (≈ 10.2 µM)	4 (≈ 10.2 µM)	4 (≈ 10.2 µM)	5	8 (≈ 20.4 µM)	Activity (Caco-2 [21]): Non-Toxic; viability at 24 h, 64 ug/ml [15]: 100%; MIC (Staphylococcus aureus [22]): 16 µg/mL; hemolysis at 0.5 h, 64 ug/ml [23]: 50%; MIC (Staphylococcus aureus [24]): 4 µg/mL; Activity (Staphylococcus aureus [12]): Active; Activity (Erythrocyte): Toxic; MIC (Staphylococcus aureus [25]): 4 µg/mL; MIC (Staphylococcus aureus [17]): 4 µg/mL (≈ 10.2 µM); MIC (Staphylococcus aureus [26]): 16 µg/mL; hemolysis at 0.5 h, 32 ug/ml [27]: < 10%; MIC (Staphylococcus aureus [28]): 16 µg/mL; Activity (Staphylococcus aureus [13]): Active; Activity (Caco-2 [29]): Toxic; MIC (Staphylococcus aureus [30]): 64 µg/mL; MIC (Staphylococcus aureus [18]): 4 µg/mL (≈ 10.2 µM); MIC (Staphylococcus aureus [31]): 8 µg/mL; Activity (Staphylococcus aureus [14]): Active; MIC (Staphylococcus aureus [32]): 2 µg/mL
C/C(=N\NC(=N)N)c1ccc(NC(=O)Nc2ccc(-c3ccccn3)cc2)cc1	4 (≈ 10.3 µM)											
C/C(=N\NC(=N)N)c1ccc(NC(=O)Nc2ccc(-c3ccco3)cc2)cc1	4 (≈ 10.6 µM)	2 (≈ 5.31 µM)	4 (≈ 10.6 µM)	4 (≈ 10.6 µM)	4 (≈ 10.6 µM)	2 (≈ 5.31 µM)	4 (≈ 10.6 µM)	8 (≈ 21.3 µM)	2 (≈ 5.31 µM)	5	4 (≈ 10.6 µM)	viability at 24 h, 64 ug/ml [15]: 100%; MIC (Staphylococcus aureus [22]): 128 µg/mL; viability at 24 h [16]: 100%; MIC (Staphylococcus aureus [24]): 8 µg/mL; Activity (Staphylococcus aureus [12]): Active; MIC (Staphylococcus aureus [25]): 2 µg/mL; MIC (Staphylococcus aureus [17]): 2 µg/mL (≈ 5.31 µM); MIC (Staphylococcus aureus [26]): 512 µg/mL; hemolysis at 0.5 h, 32 ug/ml [27]: < 2%; MIC (Staphylococcus aureus [28]): 8 µg/mL; MIC (Staphylococcus aureus [30]): 512 µg/mL; MIC (Staphylococcus aureus [18]): 8 µg/mL (≈ 21.3 µM); MIC (Staphylococcus aureus [31]): 8 µg/mL; MIC (Staphylococcus aureus [32]): 2 µg/mL
C/C(=N\NC(=N)N)c1ccc(NC(=O)Nc2ccc(-c3ccc4ccccc4c3)cc2)cc1	4 (≈ 9.16 µM)											
CN[C@H](CC(C)C)C(=O)N[C@H]1C(=O)N[C@@H](CC(N)=O)C(=O)N[C@H]2C(=O)N[C@H]3C(=O)N[C@H](C(=O)N[C@H](C(=O)O)c4cc(O)cc(O)c4-c4cc3ccc4O)[C@H](O)c3ccc(c(Cl)c3)Oc3cc2cc(c3O[C@@H]2O[C@H](CO)[C@@H](O)[C@H](O)[C@H]2O[C@H]2C[C@](C)(N)[C@H](O)[C@H](C)O2)Oc2ccc(cc2Cl)[C@H]1O [VANCOMYCIN]				> 64	64 (≈ 44.2 µM)					3	> 64	MIC (Staphylococcus aureus [33]): 64 µg/mL (≈ 44.2 µM); MIC (Staphylococcus aureus [34]): 64 µg/mL (≈ 44.2 µM); MIC (Staphylococcus aureus [35]): > 512 µg/mL; MIC (Staphylococcus aureus [36]): 64 µg/mL (≈ 44.2 µM); MIC (Staphylococcus aureus [37]): 64 µg/mL (≈ 44.2 µM)
C/C(=N\NC(=N)N)c1ccc(NC(=O)Nc2ccc(-c3cc4ccccc4o3)cc2)cc1	4 (≈ 9.38 µM)											

Source: ChEMBL document CHEMBL5154795, “Exploring the structure-activity relationships of diphenylurea as an antibacterial scaffold active against methicillin- and vancomycin-resistant Staphylococcus aureus” (Eur J Med Chem, 2022)
